# Columns and labels:
# [1] = tested on: KPC tumor-derived cell lines; experiment: Viability of cell lines from RMC-7977 resistant or naive KPC tumors; assay type: cell-based, murine
# Text: Patient-derived xenograft (PDX) human PDAC cell lines were provided by Dr. Anirban Maitra (MD Anderson Cancer Center): Pa01C, Pa02C, Pa14C, and Pa16C. hF39 and hF43 cell lines were provided by Dr. David Tuveson (Cold Spring Harbor Laboratory). The UM147 PDX cell line was obtained from University of Michigan (PMID: 17283135). PaCaDD-137 and PaCaDD-165 were obtained from the German Collection of Microorganisms and Cell Cultures GmbH (DSMZ, world wide web dsmz.de/). All remaining cell lines were obtained from the American Type Culture Collection (ATCC). […]
# PDAC murine cell lines harboring KrasG12D or KrasG12C mutations were seeded at 2×10^3 in a 96-well plate. […] Cell viability was evaluated 72 hours later by measuring adenosine triphosphate (ATP) levels using the CellTiter-Glo® Luminescent Cell Viability Assay (Promega, G7572) according to the manufacturer's instructions. For experiments comparing naive and resistant cell lines, live cells were fluorescently labelled using Calcein AM (20-minute incubation at 500 nM, Thermo Fisher) and counted using the SpectraMax i3X multimode detection platform (Molecular Devices). […] Growth percentage was calculated by normalizing drug-treated values to DMSO control, which was set to 100%. […]
# [2] = Tumor versus blood concentrations, all model systems tested; assay type: in vivo; details: BALB/c, C57Bl/6, KPF/FC, mouse, tumor vs whole blood, oral, read-out: Kp (concentration in tumor tissues vs blood)
# Procedure: Whole blood, tumor, colon and skin tissue concentrations of RMC-7977 were determined using liquid chromatography-tandem mass spectrometry (LC-MS/MS) methods. […] After thorough mixing and centrifugation, the supernatant was directly analyzed on a Sciex 6500+ triple quadrupole mass spectrometer equipped with an ACQUITY or Shimadzu UPLC system. An ACQUITY UPLC BEH C18 or C4 […] (2.1×50 mm) column was used with gradient elution for compound separation. RMC-7977 and IS (verapamil or terfenadine) were detected by positive electrospray ionization using multiple reaction monitoring (RMC-7977: m/z 865.4/706.4 or m/z 865.3/833.5; verapamil: m/z 455.2/164.9; terfenadine: m/z 472.3/436.4). […] BA analysis on blood and tissue samples from xenograft models was run at Wuxi AppTec. BA analysis on blood and tissue samples from allograft models and GEMM was run at Revolution Medicines.
# [3] = tested on: KPCY-derived PDAC cell line (6499c4) allografts; experiment: KPCY 6499c4 syngeneic allograft studies; assay type: in vivo, mouse
# Procedure: All murine allograft studies and procedures related to animal handling, care and treatment were conducted in compliance with all applicable regulations and guidelines of the Institutional Animal Care and Use Committee (IACUC). Female C57BL/6J (strain 000664) mice aged 6-8 weeks from the Jackson Laboratory (Bar Harbor, ME USA) were used for these studies.
# In order to generate subcutaneous (SC) allograft tumors, each mouse was inoculated in the right flank with 3×10^5 of KPCY 6499c4 tumor cells in 0.1 ml of Matrigel:PBS (1:1). Treatments were started when the average tumor size reached 140 mm^3. Tumor size was measured at two dimensions using a digital caliper, and the tumor volume in mm^3 was calculated using the formula: Volume=((width)2×length)/2. Mice on studies were weighed and tumors were measured 2 times a week.
# To generate orthotopic allograft tumors, 5×10^4 KPCY 6499c4 tumor cells in 20 μL PBS/Matrigel mixtures (1:1) were implanted directly into the mouse pancreas through a laparoscopic incision. Treatments were started when the average tumor size reached […]. Body weights were measured and tumor growth was monitored by ultrasound twice weekly.
# Tumor-bearing animals were randomized, assigned into groups (n=9-10/group), and treated daily via oral gavage with Vehicle or RMC-7977 (10 mg/kg, q.d.). For SC KPCY study, survival endpoint was defined as: tumor volume reaching 2000 mm^3 or mice showing any clinical signs, including severe ulceration. For orthotopic KPCY study, survival endpoint was defined as (1) mice showing any clinical signs including hunching or fluid in the abdomen, or (2) tumor dimensions exceeding the imaging frame of the ultrasound. Body weights were measured twice a week during the study. Tissue was harvested either at 4 hours or 24 hours after last dose and preserved as previously described (See Xenograft studies section).
# To stain tissues collected from the KPCY allograft model, a Biocare IntelliPATH automation system was used, and primary antibodies were detected with the MACH4-HRP-polymer Detection System (Biocare, MRH534). Stained slides were scanned and digitized with a TissueScope LE (Huron Digital Pathology) whole slide scanner at 20× magnification. Image analysis was performed using HALO software from Indica Labs.
# [4] = orthotopic CDA model, four hours after treatment
smiles,measurement,setting,value
CCn1c(-c2cc(N3CCN(C4CC4)CC3)cnc2[C@H](C)OC)c2c3cc(ccc31)-c1csc(n1)C[C@H](NC(=O)[C@H]1[C@@H]3COC[C@@H]31)C(=O)N1CCC[C@H](N1)C(=O)OCC(C)(C)C2 [RMC-7977],sensitivity of treatment-naive MycGain line K2293,[1]; K2293,lower sensitivity
same,sensitivity of lines from resistant tumors vs control KPC cell line (K8484),"[1]; all six lines from resistant tumors, 3-5 days",less sensitive
same,Kp,[2],> 1
same,tumor regressions,[3]; 10 mg/kg q.d.,without inducing significant regressions
same,apoptosis in tumors,[3]; [4],increased apoptosis
same,pERK levels in tumors,[3]; [4],reduced pERK levels
same,tumor growth,"[3]; subcutaneous or orthotopic, immunocompetent C57Bl/6 mice, 10 mg/kg q.d.",diminished tumor growth
same,overall survival,"[3]; subcutaneous or orthotopic, 10 mg/kg q.d.",extended overall survival

# Reference: patent US12662707B2, “MYC amplification drives resistance to pan-RAS inhibitors in pancreatic cancer” (The Trustees of Columbia University in the City of New York, priority 2024, dated 2026)
